{"source": "patent US10551384B2", "about": "“MTOR kinase mutations and methods of use thereof” (RUTGERS, THE STATE UNIVERSITY OF NEW JERSEY, priority 2016, dated 2020)", "key": {"[1]": {"molecular_target": "T1, tor2-dg cells expressing TOR2 (Saccharomyces cerevisiae, UniProt P32600)", "T1 construct": "expressed in transfected cells; host or cells: S. cerevisiae W303 tor2-dg, plasmid pML40-TOR2", "experiment": "Yeast serial-dilution drug sensitivity assay, tor2-dg cells expressing TOR2", "type": "cell-based, S. cerevisiae", "conditions": "10-fold serial dilutions on plates containing drug", "source_text": "FIGS. 1A-E. Developing a yeast system to assay for mTOR kinase inhibition. (FIG. 1A) Wild type (WT) yeast cells were spread onto YPD plates and tested for sensitivity to structurally diverse mTOR kinase inhibitors by disc halo assay. Rapamycin was used as a positive control. (FIG. 1B) The N-terminus of TOR2 (1-2080 aa) was fused in frame with mTOR kinase domain (2140-2549 aa). The TOR2-mTOR fusion is expressed under the control of TOR2 promoter in a centromeric plasmid. (FIG. 1C) Yeast strain expressing WT TOR2 or TOR2-mTOR fusion was analyzed for expression by immunoblot with an antibody specific for mTOR kinase domain. PGK1 was used as a loading control and extracts from MCF7 breast cells were used as a positive control for mTOR. (FIG. 1D) TOR2-mTOR fusion was expressed in tort-dg and tested for its ability to complement TOR2 function by growth at permissive and restrictive temperatures.\nTo enhance yeast cell permeability, log phase W303 tort-dg cells were spread evenly on SD-Leu agarose plates. After drying, small sterile filter discs were placed on the surface and 5 μl of indicated mTOR inhibitors or DMSO were applied to each disc with or without adding 5 μl of amphotericin B (10 μM), miconazole (50 μM) or caspofungin (50 μM). Plates were incubated at 37° C. for 3 day. Drug resistance profiles of TOR2-mTOR mutant cells were determined by the spotting assay. […]"}, "[2]": {"molecular_target": "T2, tor2-dg cells expressing TOR2-mTOR fusion (UniProt P32600+P42345)", "T2 construct": "fused in frame with mTOR kinase domain (2140-2549 aa); yeast TOR2 N-terminus (1-2080 aa); expressed in transfected cells; host or cells: S. cerevisiae W303 tor2-dg, centromeric plasmid derived from pML40-TOR2", "T2 sequence (P32600+P42345 fused with the stated changes)": "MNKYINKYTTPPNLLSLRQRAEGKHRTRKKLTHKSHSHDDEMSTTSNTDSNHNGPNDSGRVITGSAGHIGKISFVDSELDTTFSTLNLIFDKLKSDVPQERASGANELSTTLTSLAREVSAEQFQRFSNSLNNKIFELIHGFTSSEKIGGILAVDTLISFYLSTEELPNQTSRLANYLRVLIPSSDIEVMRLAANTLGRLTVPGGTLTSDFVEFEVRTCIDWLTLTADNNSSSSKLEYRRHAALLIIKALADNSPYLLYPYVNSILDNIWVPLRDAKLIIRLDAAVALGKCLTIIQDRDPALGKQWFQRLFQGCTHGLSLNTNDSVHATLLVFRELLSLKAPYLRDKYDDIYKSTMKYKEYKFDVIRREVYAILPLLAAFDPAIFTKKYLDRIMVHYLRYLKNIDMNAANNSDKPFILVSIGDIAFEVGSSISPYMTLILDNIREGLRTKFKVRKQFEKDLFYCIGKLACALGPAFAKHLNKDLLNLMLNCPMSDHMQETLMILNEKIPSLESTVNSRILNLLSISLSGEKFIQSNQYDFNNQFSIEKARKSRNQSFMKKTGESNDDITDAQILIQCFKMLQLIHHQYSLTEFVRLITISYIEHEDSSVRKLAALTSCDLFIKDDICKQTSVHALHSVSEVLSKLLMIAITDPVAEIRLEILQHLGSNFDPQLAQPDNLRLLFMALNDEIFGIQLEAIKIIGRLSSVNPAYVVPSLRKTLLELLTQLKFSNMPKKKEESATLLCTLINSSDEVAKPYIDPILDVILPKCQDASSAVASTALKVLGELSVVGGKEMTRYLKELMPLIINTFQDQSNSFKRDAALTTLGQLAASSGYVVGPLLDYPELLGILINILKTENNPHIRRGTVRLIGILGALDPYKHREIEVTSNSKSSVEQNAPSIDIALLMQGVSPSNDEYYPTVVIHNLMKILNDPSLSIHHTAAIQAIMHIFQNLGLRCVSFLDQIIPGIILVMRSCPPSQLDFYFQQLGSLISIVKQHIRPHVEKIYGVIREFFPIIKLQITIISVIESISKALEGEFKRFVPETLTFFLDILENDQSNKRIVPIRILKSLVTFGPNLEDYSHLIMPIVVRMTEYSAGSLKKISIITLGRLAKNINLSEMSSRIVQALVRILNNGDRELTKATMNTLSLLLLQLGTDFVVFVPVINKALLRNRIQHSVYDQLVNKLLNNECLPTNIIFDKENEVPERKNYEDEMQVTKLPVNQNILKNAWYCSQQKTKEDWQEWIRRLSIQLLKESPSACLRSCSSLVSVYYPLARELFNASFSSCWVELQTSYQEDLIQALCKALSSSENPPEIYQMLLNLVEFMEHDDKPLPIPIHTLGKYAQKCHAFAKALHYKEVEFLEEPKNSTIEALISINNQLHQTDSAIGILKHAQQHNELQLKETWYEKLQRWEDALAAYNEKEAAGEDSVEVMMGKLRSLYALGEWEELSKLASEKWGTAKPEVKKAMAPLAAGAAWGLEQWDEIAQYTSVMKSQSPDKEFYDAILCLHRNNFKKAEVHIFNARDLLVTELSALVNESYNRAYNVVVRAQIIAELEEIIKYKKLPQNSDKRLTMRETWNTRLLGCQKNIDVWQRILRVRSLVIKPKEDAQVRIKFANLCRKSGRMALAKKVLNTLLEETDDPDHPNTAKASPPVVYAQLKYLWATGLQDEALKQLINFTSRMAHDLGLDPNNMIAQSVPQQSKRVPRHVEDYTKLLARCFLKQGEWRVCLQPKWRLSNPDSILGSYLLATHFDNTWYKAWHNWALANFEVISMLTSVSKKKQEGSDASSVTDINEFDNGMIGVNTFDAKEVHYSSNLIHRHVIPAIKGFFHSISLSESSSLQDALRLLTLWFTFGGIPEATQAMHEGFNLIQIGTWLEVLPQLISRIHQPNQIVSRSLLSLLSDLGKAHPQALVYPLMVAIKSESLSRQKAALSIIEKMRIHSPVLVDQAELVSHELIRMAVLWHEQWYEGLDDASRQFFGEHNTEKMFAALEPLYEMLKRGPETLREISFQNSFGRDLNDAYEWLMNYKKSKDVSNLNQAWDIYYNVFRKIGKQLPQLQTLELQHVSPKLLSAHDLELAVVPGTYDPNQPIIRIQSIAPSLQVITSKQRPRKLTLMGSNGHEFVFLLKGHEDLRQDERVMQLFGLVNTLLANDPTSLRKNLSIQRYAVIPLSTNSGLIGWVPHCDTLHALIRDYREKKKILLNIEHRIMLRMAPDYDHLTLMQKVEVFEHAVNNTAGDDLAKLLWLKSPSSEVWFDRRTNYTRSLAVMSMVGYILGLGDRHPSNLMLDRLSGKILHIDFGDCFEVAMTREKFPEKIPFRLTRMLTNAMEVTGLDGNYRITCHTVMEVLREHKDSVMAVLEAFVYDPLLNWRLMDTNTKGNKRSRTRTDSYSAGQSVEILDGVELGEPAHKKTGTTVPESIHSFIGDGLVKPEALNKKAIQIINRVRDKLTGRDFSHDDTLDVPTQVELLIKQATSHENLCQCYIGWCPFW", "T2 sequence (P41318 whole entry partner, the tested form may be a part)": "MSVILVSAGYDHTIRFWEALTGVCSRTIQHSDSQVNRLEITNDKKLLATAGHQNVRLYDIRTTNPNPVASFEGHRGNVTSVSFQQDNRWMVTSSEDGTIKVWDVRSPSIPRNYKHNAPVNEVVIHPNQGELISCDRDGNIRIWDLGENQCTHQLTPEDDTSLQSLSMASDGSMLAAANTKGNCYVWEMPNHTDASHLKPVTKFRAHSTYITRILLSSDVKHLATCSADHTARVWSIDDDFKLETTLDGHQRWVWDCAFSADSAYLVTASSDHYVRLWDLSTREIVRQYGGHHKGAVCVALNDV", "type": "cell-based, S. cerevisiae", "conditions": "10-fold serial dilutions on plates containing drug", "from_the_text": "The TOR2-mTOR hybrid plasmid was constructed by replacing the C-terminal region of TOR2 of pML40-TOR2 (Alarcon, et al. (1996). Genes & development 10, 279-288) (encoding for 2080-2474 aa) in frame with a DNA fragment corresponding to C-terminal domain of mTOR (encoding for 2140-2549 aa). To construct mutant TOR2-mTOR plasmids, mTOR C-terminal region was amplified by PCR and co-transformed into yeast with XmaI-digested pML40-TOR2 plasmid that excised the TOR2 C-terminal region. The resultant TOR2-mTOR fusion plasmids are constructed in reading frame by gap-repair in yeast."}, "[3]": {"test_system": "SW480 colorectal cancer cells carrying L2185A mutant mTOR alleles", "experiment": "SRB growth assay of SW480 cells carrying L2185A mutant mTOR", "type": "cell-based, human", "conditions": "various concentrations, 2 day", "experimental": "(FIG. 5A) SW480 cells carrying homozygous WT mTOR or L2185A mutant alleles were treated with various concentrations of AZD8055, INK-128, OSI-027 and PP242 for 2 day. Growth of SW480 cells was measured by SRB assay. Data represent means±SD in three independent experiments. (FIG. 5B) SW480 cells carrying homozygous WT and L2185A mutant mTOR allele were treated with a single dose of AZD8055 (100 nM), INK-128 (100 nM), OSI-027 (6,000 nM), and PP242 (2,000 nM) for different times. Cell growth was measured by SRB assay. The drug carrier DMSO was used as a control. Data represent means±SD in three independent experiments. (FIG. 5C) SW480 cells carrying homozygous WT and L2185A mutant mTOR were treated with various concentrations of INK-128, OSI-027, AZD8055 and PP242 for 1 hr. The effect on the level of P-S6K, S6K, P-4E-BP1, 4EB-P1, P-AKT and AKT was analyzed by immunoblot. […] The growth of SW480 cells was measured by SRB assay. Data represent means±SD in three independent experiments.\nCancer cell lines were maintained in DMEM or RPMI 1640, supplemented with 10% fetal bovine serum (Invitrogen) and 1% penicillin/streptomycin (Invitrogen). CRISPR/cas9 technology was used to engineer mutant mTOR allele in SW480 colorectal and H460 lung cancer cells. Briefly, The target sequence for mTOR, […] (SEQ ID NO: 3 was designed through the online tool at crispr.mit.edu, and cloned into pSPCas9(BB)-2A-GFP vector (PX458 in Addgene). Genomic mTOR mutation was engineered using a protocol as described (Ran, et al. (2013). Nature protocols 8, 2281-2308) and was confirmed by targeted sequencing.\nAntibodies against tubulin, S6K, phospho-S6K (Thr389), 4E-BP1, phospho-4E-BP1 (Thr37/46), Akt, phospho-Akt (Thr308), and phospho-Akt (Ser473) were purchased from Cell Signaling Technology. […] For drug sensitivity test, cancer cells were seeded in 96-well plates at a density of 2,000 cells per well. 24 hours later, different concentrations of mTOR inhibitors were added in quadruplicate. Cell growth was measured by the sulforhodamine B (SRB) assay as previously described (Vichai, V., and Kirtikara, K. (2006). Nature protocols 1, 1112-1116)."}, "[4]": {"test_system": "H460 lung cancer cells carrying L2185A mutant mTOR alleles", "experiment": "SRB growth assay of H460 cells carrying L2185A mutant mTOR", "type": "cell-based, human", "conditions": "various concentrations, 2 days", "experimental": "(FIG. 10A) Flag-mTOR(L2185A), when transiently expressed in HEK293T cells, confers drug resistance to mTOR kinase inhibitors. HEK293T cells transiently expressing WT and L2185A mutant Flag-mTOR were treated with various concentrations of INK-128, OSI-027 for 1 hr. The effect on the level of P-S6K, S6K, P-4E-BP1, 4EB-P1, P-AKT and AKT was analyzed by immunoblot. (FIG. 10B) Sequencing verification of genome-engineered SW480 and H460 cells carrying homozygous and heterozygous L2185A mutations in mTOR locus. (FIG. 10C) Independent clones of engineered SW480 cells confer similar drug resistance. Cells were treated with various concentrations of AZD8055 and INK-128 for 2 days. Cell growth was measured by SRB assay. Clones #1, 3 carry heterozygous L2185A mutation. Clones #2, 4 carry homozygous L2185A mutation. […] Cell growth was measured by SRB assay. […] Cell growth was measured by SRB assay. […] The effect on level of P-S6K, P-4E-BP1 and P-AKT was analyzed by immunoblot. […] The growth of H460 cells was measured by SRB assay. […]\nAntibodies against tubulin, S6K, phospho-S6K (Thr389), 4E-BP1, phospho-4E-BP1 (Thr37/46), Akt, phospho-Akt (Thr308), and phospho-Akt (Ser473) were purchased from Cell Signaling Technology. […] Cell growth was measured by the sulforhodamine B (SRB) assay as previously described (Vichai, V., and Kirtikara, K. (2006). Nature protocols 1, 1112-1116)."}, "[5]": {"test_system": "Wild type (WT) yeast cells", "experiment": "Disc halo assay of wild type yeast sensitivity to mTOR kinase inhibitors", "type": "cell-based, S. cerevisiae", "conditions": "WT yeast on YPD plates; 5 μl on filter disc, BEZ235 5 μM, other mTOR inhibitors 10 μM; 30° C., 3 day", "method": "For the halo assay, log phase W303 wild type or tor2-dg cells were spread evenly on YPD agarose plates. […] Plates were incubated at 30° C. (wild type) or 37° C. (tor2-dg) for 3 day."}, "TOR2-mTOR L2185A mutant": {"test_system": "TOR2-mTOR L2185A mutant", "experiment": "Yeast spotting assay for drug resistance, TOR2-mTOR L2185A", "type": "cell-based, S. cerevisiae", "conditions": "37° C., amphotericin B present (except OSI-027)", "source_text": "(§1) FIGS. 4A-C. […] (FIG. 4A) Scheme of a yeast-based screen for drug-resistant mutations in mTOR kinase domain. mTOR kinase domain is amplified by error-prone PCR to generate randomized mutations, which is then recombined in frame into the TOR2-mTOR plasmid by gap-repair in tort-dg cells, and is selected on SC-leucine minus plates. Replica plating is then made onto SC-leucine plates containing DMSO or mTOR kinase inhibitor for selection of drug resistant clones. (FIG. 4B) tor2-dg cells expressing WT or mutant TOR2-mTOR were serially diluted by 10-fold and assayed for sensitivity to different mTOR kinase inhibitors in the presence of amphotericin B. Vector and TOR2 were used as controls. Drug resistant assay was performed at 37° C. in the presence of amphotericin B (except OSI-027). (FIG. 4C) Systematic mutational analysis of L2185 on drug resistance. tort-dg cells expressing WT or mutant TOR2-mTOR carrying all possible mutations at L2185 were serially diluted by 10-fold and tested for sensitivity to different mTOR kinase inhibitors at 37° C.\n(§2) To enhance yeast cell permeability, log phase W303 tort-dg cells were spread evenly on SD-Leu agarose plates. After drying, small sterile filter discs were placed on the surface and 5 μl of indicated mTOR inhibitors or DMSO were applied to each disc with or without adding 5 μl of amphotericin B (10 μM), miconazole (50 μM) or caspofungin (50 μM). Plates were incubated at 37° C. for 3 day. Drug resistance profiles of TOR2-mTOR mutant cells were determined by the spotting assay. For this assay, 10-fold serial dilutions of cells were spotted on SD-leu plates in the presence of indicated mTOR inhibitors with or without amphotericin B (200 nM) and incubated at 37° C. for 3 day."}, "TOR2-mTOR L2185C mutant": {"test_system": "TOR2-mTOR L2185C mutant", "experiment": "Yeast spotting assay for drug resistance, TOR2-mTOR L2185C", "type": "cell-based, S. cerevisiae", "conditions": "37° C., amphotericin B present (except OSI-027)", "source_text": "as §1, §2"}}, "data": [{"molecule": "Cn1c(=O)n(-c2ccc(C(C)(C)C#N)cc2)c2c3cc(-c4cnc5ccccc5c4)ccc3ncc21", "note": "[BEZ235]", "values": [{"measurement": "drug sensitivity (growth inhibition) of tor2-dg cells expressing TOR2", "setting": "[1]", "value": "poorly inhibited"}, {"measurement": "drug sensitivity of tor2-dg cells expressing TOR2-mTOR", "setting": "[2]", "value": "highly sensitive"}, {"measurement": "drug resistance/sensitivity of cell growth, SW480 L2185A vs WT", "setting": "[3]", "value": "remains sensitive"}, {"measurement": "drug resistance/sensitivity of cell growth, H460 L2185A vs WT", "setting": "[4]", "value": "remains sensitive"}]}, {"molecule": "Nc1ccc(-c2ccc3ncc4ccc(=O)n(-c5cccc(C(F)(F)F)c5)c4c3c2)cn1", "note": "[Torin2]", "values": [{"measurement": "inhibition of yeast growth (disc halo assay)", "setting": "[5]", "value": "inhibit yeast growth"}, {"measurement": "drug resistance/sensitivity of TOR2-mTOR L2185A mutant yeast", "setting": "TOR2-mTOR L2185A mutant", "value": "remain sensitive"}, {"measurement": "drug resistance/sensitivity of TOR2-mTOR L2185C mutant yeast", "setting": "TOR2-mTOR L2185C mutant", "value": "remain sensitive"}, {"measurement": "drug resistance/sensitivity of cell growth, SW480 L2185A vs WT", "setting": "[3]", "value": "remains sensitive"}, {"measurement": "drug resistance/sensitivity of cell growth, H460 L2185A vs WT", "setting": "[4]", "value": "remains sensitive"}]}]}
